According to patent US10583117B2, “Oxo-M and 4-PPBP induction of tenogenic differentiation of perivascular tendon stem cells” (The Trustees of Columbia University in the City of New York, priority 2016, dated 2020):
“Also recorded” adds a separate entry of the source.

Experiments:
[1] = tested on: CD146+ perivascular tendon stem/progenitor cells (PTSCs); assay type: cell-based, rat
[2] = tested on: fully transected rat patellar tendons; assay: Healing of fully transected rat patellar tendon, delivery via fibrin glue; assay type: in vivo; settings: for tendon healing, H&E staining: Oxo-M 1 mM, 4-PPBP 10 μM in fibrin; for alignment of collagen fibers (Picrosirius Red, automated digital image processing): n=6; for effect on induced tenogenic differentiation of PTSCs and tendon healing: overall statement
FAK [3] = assay: Western blot, phosphorylation of FAK in PTSCs; assay type: cell-based, rat; settings: 12 hours treatment in PTSCs
Experimental: (§1) Activation of FAK and ERK1/2 signaling by Oxo-M and 4-PPBP was further confirmed by western blot and siRNA knockdown (KD). […] With combined Oxo-M and 4-PPBP, both P-FAK and P-ERK1/2 were detected (FIG. 3A). […] In addition, siRNA KD of FAK and ERK1/2 were performed as described previously (Lee, et al., 2015, supra), which is hereby incorporated herein by reference in its entirety for all purposes.

FAK [4] = assay: Western blot, P-FAK in CD146- tendon cells; assay type: cell-based, rat; settings: CD146− tendon cells (excluding PTSCs)
Experimental: as §1

ERK1/2 = assay: Western blot, phosphorylation of ERK1/2 in PTSCs; assay type: cell-based, rat; settings: 12 hours treatment in PTSCs
Experimental: as §1

Row | SMILES | COL-I gene expression ([1]; maleate) | COL-III gene expression ([1]; maleate) | collagen fibers, polarized Picrosirius Red images ([2]; 1 week post-op) | tendon healing, H&E staining ([2]; 1 week post-op) | collagen fibers, polarized Picrosirius Red images ([2]; 2 weeks post-op) | collagen in healing zone, Masson's Trichrome staining ([2]; 2 weeks post-op) | tendon healing, H&E staining ([2]; 2 weeks post-op) | alignment of collagen fibers (Picrosirius Red, automated digital image processing) [2] | effect on induced tenogenic differentiation of PTSCs and tendon healing [2] | phosphorylation of FAK (P-FAK) (FAK [3]) | P-FAK band (FAK [4]) | Scx gene expression [1] | Tn-C gene expression [1] | VIM gene expression [1] | phosphorylation of ERK1/2 (P-ERK1/2) (ERK1/2)
1 | O=C(O)/C=C\C(=O)O.c1ccc(CCCCN2CCC(c3ccccc3)CC2)cc1 [4-PPBP, 4-phenyl-1-(4-phenylbutyl)-piperidine maleate] | elevated; also recorded: significantly increased | elevated; also recorded: significantly increased | disrupted collagen structure | disorganized scar-like tissue | disrupted collagen structure | disrupted collagen structure | scar-like healing | disoriented fibers | only minimal effect | resulted in phosphorylation | no P-FAK band |  |  |  | 
2 | C[N+](C)(C)CC#CCN1CCCC1=O [Oxo-M, Oxotremorine methiodide] |  |  | disrupted collagen structure | disorganized scar-like tissue | disrupted collagen structure | disrupted collagen structure | scar-like healing | disoriented fibers | only minimal effect | resulted in phosphorylation | no P-FAK band | significant increases; also recorded: significantly increased | significant increases; also recorded: significantly increased | significant increases; also recorded: significantly increased | resulted in phosphorylation
